Holding throughout (assay): growth of human tumour cells (NCI), 48 h
Test [1] concerns M14 melanoma.
Test [2] concerns OVCAR-3 ovarian.
Test [3] relates to MDA-MB-435.
Test [4] deals with T-47D breast.
The test system of test [5] is OVCAR-4 ovarian.
For test [6], the system named is MDA-MB-231 breast.
Test [7] deals with SF-268 CNS.
In test [8] the test system is TK-10 renal.
Test [9] relates to HS 578T breast.
Test [10] deals with NCI-H522 lung.
Test [11] relates to U251 CNS.
In test [12] the test system is SF-295 CNS.
Test [13] deals with NCI-H460 lung.
In test [14] the test system is MCF7 breast.
The test system of test [15] is OVCAR-8 ovarian.
The test system of test [16] is SK-MEL-2 melanoma.
For test [17], the system named is 786-0 renal.
Test [18] relates to SW-620 colon.

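Where inhibition never reached the appropriate level, the endpoint shown equals the highest concentration tested. Otherwise, values were interpolated linearly from a five-concentration, 48-hour dose response in 96-well plates. TGI is the concentration that stops growth completely.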

Turning to `CN1CCc2cc(N)cc3c2C1Cc1ccc2c(c1-3)OCO2` (centres undefined), the TGI in test [1] was over 100 µM; in [2], over 76.5 µM; in test [3] it was over 100 µM; in [4] it was over 100 µM; in test [5], over 90.4 µM; in [6], over 100 µM. Moreover, the TGI in test [7] is over 100 µM; in [8], over 88.8 µM; in [9] it was 82.2 µM; in test [10], 53.1 µM; in test [11], over 100 µM; in test [12], over 100 µM. Moreover, the TGI in test [13] is over 77.8 µM; in test [14], over 100 µM; in test [15] it was over 100 µM; in [16] it was over 100 µM; in test [17], 99 µM; in test [18] it was over 100 µM.

As to `O=C(O)c1ccc(NNC(=O)c2cccc3c(=O)c4ccccc4[nH]c23)cc1`, the TGI in [1], in test [2], in [3], in test [4], in [5] and in test [6] was over 100 µM in each case. For the same compound, the TGI was over 100 µM in test [7]; over 100 µM in [8]; over 100 µM in [9]; 96 µM in [10]; over 100 µM in test [11]; over 100 µM in test [12]. Moreover, the TGI in test [13], in test [14], in test [15], in test [16], in test [17] and in test [18] was over 100 µM in each case.

With `Cc1nnc2n1N=C(c1cc(F)c(Cl)cc1Cl)/C(=C/c1ccc3c(c1)OCO3)S2`, the TGI in test [1], in test [2], in [3], in test [4], in test [5] and in [6] was over 100 µM in each case. The TGI was over 100 µM in [7]; over 100 µM in [8]; over 100 µM in test [9]; 78.2 µM in [10]; over 100 µM in test [11]; over 100 µM in [12]. Besides, the TGI in test [13], in test [14], in test [15], in test [16], in [17] and in [18] was over 100 µM each time.

Turning to `O=C(c1ccccc1)C1C[C@H]2CO[C@H](c3ccccc3)N2C1=O` (some centres undefined), the TGI in test [1], in test [2], in test [3], in [4], in test [5] and in test [6] was over 100 µM each time. Besides, the TGI in [7], in test [8], in [9], in [10], in [11] and in test [12] was over 100 µM each time. The TGI in test [13], in [14], in test [15], in test [16], in test [17] and in test [18] was over 100 µM each time.

On to `Cc1cn(C2CC(NC(=NCC3OC(n4cnc5c(N)ncnc54)CC3O)NC#N)C(CO)O2)c(=O)[nH]c1=O` (centres undefined), for which the TGI in test [1], in test [2], in test [3], in [4], in [5] and in test [6] was over 100 µM throughout. The TGI in [7], in [8], in test [9], in test [10], in test [11] and in test [12] was over 100 µM throughout. For the same compound, the TGI in [13], in test [14], in test [15], in test [16], in test [17] and in [18] was over 100 µM throughout.

For `CC1=CC(=O)/C(=C/n2c(=S)[nH]c3ccc([N+](=O)[O-])cc32)C(=O)O1`, the TGI in test [1], in test [2], in [3], in [4], in test [5] and in test [6] was over 100 µM in each case. Besides, the TGI in test [7], in test [8], in test [9], in [10], in test [11] and in test [12] was over 100 µM in each case. Moreover, the TGI in test [13], in [14], in test [15], in test [16], in test [17] and in test [18] was over 100 µM in each case.

For the compound `N#CC1(C#N)C(c2ccccc2)C=CC(c2ccc([N+](=O)[O-])cc2)C1(C#N)C#N` (centres undefined), the TGI in test [1] amounted to 15.7 µM; in [2] it was 23.2 µM; in test [3] it was 16.3 µM; in test [4] it was 7.27 µM; in [5], 30.5 µM; in test [6] it was 28.1 µM. In addition, the TGI in test [7] was 51.6 µM; in test [8], 13.1 µM; in test [9], over 59.9 µM; in test [10], 9.48 µM; in test [11], 53 µM; in [12], 33.7 µM. In addition, the TGI in [13] is over 100 µM; in test [14] it was 21.1 µM; in test [15], 27.5 µM; in [16], 31.6 µM; in test [17] it was 7.71 µM; in test [18], over 32.4 µM.

`CCOC(=O)c1cc2cc(C)cc(C(=O)c3ccc([N+](=O)[O-])cc3)c2[nH]1`: the TGI in test [1], in [2], in test [3], in [4], in [5] and in test [6] was over 100 µM in each case. Moreover, the TGI in test [7], in [8], in test [9], in test [10], in test [11] and in test [12] was over 100 µM throughout. In addition, the TGI in test [13], in test [14], in [16], in test [17] and in [18] was over 100 µM in each case.

Regarding `COc1ccc(N=CN(C)C)c(C)c1`, the TGI in test [1] is 55.5 µM; in test [2] it was 13.1 µM; in test [3], 93.3 µM; in test [4], 68.4 µM; in test [5] it was 73.6 µM; in test [6] it was 58 µM. For the same compound, the TGI was over 100 µM in test [7]; over 100 µM in test [8]; 19.8 µM in test [9]; 8.08 µM in test [10]; 72.5 µM in test [11]; 51.6 µM in [12]. Further, the TGI in test [14] was 44.3 µM; in test [15] it was 83.8 µM; in [16], 30.4 µM; in test [17] it was over 100 µM.

In the case of `COc1ccc(C(SCC(N)C(=O)O)(c2ccc(OC)cc2)c2ccc(OC)cc2)cc1` (centres undefined), the TGI came to 15.1 µM in test [1]; 17.1 µM in test [2]; 10.8 µM in test [3]; 21.4 µM in test [4]; 27.7 µM in [5]; 19.6 µM in test [6]. For the same compound, the TGI in test [7] came out at 19.9 µM; in [8], 25.6 µM; in [9] it was 19.5 µM; in test [10] it was 39.8 µM; in [11], 29.8 µM; in test [12], 17.8 µM. In addition, the TGI in test [13] stood at 17.3 µM; in test [14], 16.5 µM; in test [15] it was 18 µM; in test [16], 18.4 µM; in test [17], 20.3 µM.

On to `N#CCc1nc(-c2cc3c(ccc4ccccc43)oc2=O)cs1`, for which the TGI is over 100 µM in test [1]; over 100 µM in test [3]; over 100 µM in test [4]; 60.4 µM in test [5]; 39 µM in test [6]; over 100 µM in test [7]. The TGI in test [8] is 38.9 µM; in [9], 63.4 µM; in test [10], 27.4 µM; in test [11] it was 38.5 µM; in [12] it was 71.2 µM; in [13], over 100 µM. The TGI is over 100 µM in test [14]; over 100 µM in test [15]; 72.4 µM in [16]; 51.6 µM in test [17]; over 100 µM in [18].

As for `O=C(/C=C/c1ccc2c(c1)OCO2)CC(=O)/C=C/c1ccc2c(c1)OCO2`, the TGI is over 100 µM in test [1]; over 100 µM in test [2]; over 100 µM in test [3]; over 100 µM in test [4]; 68.5 µM in test [5]; over 100 µM in [6]. Further, the TGI in test [8], in test [9], in [10], in test [11], in [12] and in test [13] was over 100 µM in each case. Moreover, the TGI in test [14], in test [16], in test [17] and in test [18] was over 100 µM each time.

The values are drawn from PubChem BioAssay (NCI).
